From patent US6685617B1, “Inhibitors of α4β1 mediated cell adhesion” (Pharmacia & Upjohn Company, priority 1998, dated 2004)

Experiments:
[1] = molecular target: T1, α4β1 integrin (Jurkat T-cell adhesion to IL-1 stimulated endothelial cell monolayers) (Homo sapiens, UniProt P05556+P13612); assay: Jurkat-endothelial cell adhesion assay (Jurkat EC); format: cell-based; conditions: Jurkat cells on IL-1 stimulated human umbilical vein endothelial cells; read-out: JK/EC (Jurkat EC Assay IC50 value range)
T1 construct: a T-cell line, Jurkat, known to express the α4β1 integrin; host or cells: Jurkat T-cell line
T1 sequence (P13612 34-1032): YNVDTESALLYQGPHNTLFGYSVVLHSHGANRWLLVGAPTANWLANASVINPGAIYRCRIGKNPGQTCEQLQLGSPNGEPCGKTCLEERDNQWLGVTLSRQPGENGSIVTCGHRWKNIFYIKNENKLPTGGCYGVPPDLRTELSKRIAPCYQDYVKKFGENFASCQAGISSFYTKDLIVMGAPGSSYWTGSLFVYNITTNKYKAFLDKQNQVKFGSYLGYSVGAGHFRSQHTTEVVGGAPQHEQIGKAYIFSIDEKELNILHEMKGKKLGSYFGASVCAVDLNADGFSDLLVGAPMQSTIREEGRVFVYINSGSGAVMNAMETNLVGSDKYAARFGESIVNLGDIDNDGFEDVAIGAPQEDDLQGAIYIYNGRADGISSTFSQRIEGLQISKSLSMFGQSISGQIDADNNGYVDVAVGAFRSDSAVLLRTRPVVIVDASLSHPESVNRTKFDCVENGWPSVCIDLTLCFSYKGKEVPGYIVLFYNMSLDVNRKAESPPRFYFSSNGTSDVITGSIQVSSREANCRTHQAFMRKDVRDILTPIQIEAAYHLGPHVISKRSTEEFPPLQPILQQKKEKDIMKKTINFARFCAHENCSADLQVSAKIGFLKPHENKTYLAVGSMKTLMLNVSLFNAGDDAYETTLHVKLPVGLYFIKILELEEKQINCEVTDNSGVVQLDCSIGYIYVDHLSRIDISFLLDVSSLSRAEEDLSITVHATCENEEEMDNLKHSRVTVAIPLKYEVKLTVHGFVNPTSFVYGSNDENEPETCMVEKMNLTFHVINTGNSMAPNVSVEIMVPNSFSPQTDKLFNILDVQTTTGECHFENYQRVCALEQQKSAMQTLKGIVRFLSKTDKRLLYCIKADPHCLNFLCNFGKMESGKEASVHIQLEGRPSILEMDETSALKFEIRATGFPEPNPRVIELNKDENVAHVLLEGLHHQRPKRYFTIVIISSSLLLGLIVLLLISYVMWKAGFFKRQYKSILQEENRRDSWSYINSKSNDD
T1 sequence (P05556 21-798): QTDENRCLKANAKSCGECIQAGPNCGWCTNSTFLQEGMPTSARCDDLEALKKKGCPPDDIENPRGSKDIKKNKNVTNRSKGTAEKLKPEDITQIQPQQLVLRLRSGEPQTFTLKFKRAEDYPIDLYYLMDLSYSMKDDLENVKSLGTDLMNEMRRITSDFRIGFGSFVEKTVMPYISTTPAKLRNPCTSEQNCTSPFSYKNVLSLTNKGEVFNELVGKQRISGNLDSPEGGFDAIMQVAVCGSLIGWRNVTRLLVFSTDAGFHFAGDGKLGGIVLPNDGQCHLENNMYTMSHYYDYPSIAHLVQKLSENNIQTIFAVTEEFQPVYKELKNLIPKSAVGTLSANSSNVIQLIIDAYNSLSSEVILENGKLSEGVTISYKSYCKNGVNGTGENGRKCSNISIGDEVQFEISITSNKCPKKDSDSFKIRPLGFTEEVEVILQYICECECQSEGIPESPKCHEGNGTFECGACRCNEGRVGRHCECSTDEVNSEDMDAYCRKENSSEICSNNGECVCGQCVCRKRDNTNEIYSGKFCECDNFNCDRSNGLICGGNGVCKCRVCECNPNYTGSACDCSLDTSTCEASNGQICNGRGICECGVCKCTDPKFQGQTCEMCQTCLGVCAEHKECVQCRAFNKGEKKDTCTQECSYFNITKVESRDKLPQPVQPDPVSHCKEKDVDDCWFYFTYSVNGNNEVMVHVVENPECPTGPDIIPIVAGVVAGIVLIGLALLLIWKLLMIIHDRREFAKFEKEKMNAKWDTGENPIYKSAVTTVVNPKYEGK
In short: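 Adhesion was expressed as percent of compound-free fluorescence after 20 min at 37° C (following 5 min settling on ice) of BCECF-loaded Jurkat T cells on washed HUVEC monolayers. The endothelium, passage 6 or lower, had received 0.1 ng/ml recombinant IL-1 for 4 hr at 37° C; compound was premixed with the T cells, typically at 100, 20, 5 and 1.25 μM.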

[2] = molecular target: T2, α4β1 integrin (Jurkat cell adhesion to immobilized CS-1 derived peptide CLHPGEILDVPST) (Homo sapiens, UniProt P05556+P13612); assay: Jurkat-CS-1 assay; format: cell-based; conditions: Jurkat cells on CS-1 peptide coated plates; read-out: JK/CS-1 (Jurkat CS-1 Assay IC50 value range)
T2 construct: 100 μl of Jurkat cells (2.5×10^6 cells/ml) in DMEM plus BSA; host or cells: Jurkat T-cell line
T2 sequence (P13612 34-1032): as the sequence (P13612 34-1032) above
T2 sequence (P05556 21-798): as the sequence (P05556 21-798) above
In short: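 CS-1 peptide was SPDP-crosslinked onto HSA-coated plates and blocked with BSA. Jurkat cells (2.5×10^6 cells/ml) in DMEM/BSA were mixed with compound, generally at 100, 20, 5 and 1.25 μM, and allowed to adhere for 1 hr at 37° C. Bound cells were fixed, stained with toluidine blue and quantified by OD590.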

[3] = tested on: VLA-4 integrin-dependent eosinophil infiltration; assay: Dextran pleurisy model (intrapleural dextran, pleural leukocyte infiltration); format: in vivo, C57BL/6 mice; conditions: dose 50 × 2 iv; mouse, 4 h after intrapleural dextran
Protocol: Animals, Housing and Viral Testing:
C57BL/6 mice (Jackson, Bar Harbor, Me.), 6-8 weeks old, weighing 20-25 g were used throughout. All mice were acclimated for at least 7-14 days after arrival and maintained under controlled temperature (20-22° C.) and a 12 hr daily light cycle (6.00 A.M.-6.00 P.M.). Mice were housed in laminar flow racks and checked biweekly for viral infections (mouse hepatitis virus, minute virus of mice, rodent orphan parvovirus, Sendai) with kits obtained from Oreganon Teknika (Durham, N.C.) using established enzyme-linked immunoabsorbent assays. Mice testing positive for any of the above were omitted from the study. […]
Quantitation of Pleural Inflammatory Leukocyte Responses: […]
The pleural cavities of mice receiving either no intrapleural injection, or saline were washed and the cells counted in the same way to estimate baseline or saline-induced pleural leukocyte counts respectively. […]
The following compounds were tested for their inhibitory effects on dextran-induced leukocyte infiltration: Examples 3, 8, 9, 10, 12, 16, 37, 62, 66, 67, 99, 100, 111, 113, 115, 127, 131, 141, 184, 185, 192, PBS (saline) was administered iv. as a control. Inhibition of eosinophil infiltration, which was suppressed by anti-alpha-4 Mab (PS/2, 50%), was used as a readout of VLA-4 antagonist activity of the compounds tested. […]

**Q.** Which results are given for “[2R-[1(S*),2α,4β(S*)]]-4-[[[1-Carboxy-2-[4-[(2,6-dichlorobenzoyl)amino]phenyl]ethyl]-amino]carbonyl]-1-(1-phenylethyl)-2-azetidincearboxylic Acid, Dilithium Salt [Example 131]”?
**A.** IC50 [1]: 250 to 1000 nM; IC50 [2]: 50 to 750 nM; % Inhibition of Eosinophil infiltration (Eos) [3]: C (C<19)
